Data: patent US20170119824A1, “A METHOD FOR THE TREATMENT OF GLIOBLASTOMA WITH WHARTON JELLY-MESENCHYMAL STEM CELLS (WJ-MSC) DERIVED FROM HUMAN UMBILICAL CORD” (priority 2014, published 2017)

system: glioblastoma tumor sample collected from patient; assay: Oncoprint explant tumor culture model, drug sensitivity test with H&E, Ki67 and caspase staining; format: cell-based, human; settings: glioma tumor samples in vitro, explant culture in artificial tumor microenvironment
From the text: According to one embodiment herein, Ocoprint® an explants tumor culture model to identify the anti-tumor effect of commonly used chemotherapeutics agents as well as Wharton's jelly derived mesenchymal stem cells on gliomas samples. In the laboratory, a tumor microenvironment similar to the body or physiological environment is created artificially in a dish. The tumor sample collected from patient is placed in this micro-environment in dish. Different anticancer agents including the mesenchymal stem cells derived from umbilical cord are applied on the tumor in the micro-environment. This mimics the application of these anti-cancer agents against the tumor when the tumor is in the human body. Simultaneously a control sample is maintained without any treatment or application of anti-cancer agents. After a specific treatment time or incubation the tumor samples are collected from the microenvironment and are subjected to a set of laboratory tests. […] The tests also reveal that the anti-cancer agents are able to kill tumor cells, reduce the number of tumor cells or limit the growth of tumor cells or the anti-cancer agent is converting the aggressively growing tumor cells to a programmed cell death mode.
The tests which are applied for testing effect of anti-cancer agents on the tumor are 1) Hematoxylin and eosin staining (H & E staining), 2) Ki67 is staining and 3) Caspase staining.
The Ki67 staining indicates the growth pattern of tumor cells.
According to one embodiment herein, Ocoprint® an explants tumor culture model to identify the anti-tumor effect of commonly used chemotherapeutics agents as well as Wharton's jelly derived mesenchymal stem cells on glioma's samples. In the laboratory, a tumor microenvironment similar to the body or physiological environment is created artificially in a dish. The tumor sample collected from the patient is placed in this micro-environment in dish. Different anticancer agents including the mesenchymal stem cells derived from umbilical cord are applied on the tumor in the micro-environment. […]

Oncoprint sensitivity report: response of glioma samples (responders / non-responders) | Compound
responded | O=C1CCC(N2C(=O)c3ccccc3C2=O)C(=O)N1 (stereo not drawn) [Thalidomide]
have not responded | CNC(=O)c1cc(Oc2ccc(NC(=O)Nc3ccc(Cl)c(C(F)(F)F)c3)cc2)ccn1 [sorafenib]
responded | Avastin: anti-cancer agent applied to the glioblastoma tumor
